This assay has as its target full length XPA protein (Homo sapiens, UniProt P23025). The assay is described as follows: biochemical. The note with it: IC50 (μM), EMSA, 32P labeled 30 bp duplex DNA containing a single 1,2 dGpG cisplatin adduct, several values in a cell = separate determinations.
Sequence of full length XPA protein (P23025 whole entry): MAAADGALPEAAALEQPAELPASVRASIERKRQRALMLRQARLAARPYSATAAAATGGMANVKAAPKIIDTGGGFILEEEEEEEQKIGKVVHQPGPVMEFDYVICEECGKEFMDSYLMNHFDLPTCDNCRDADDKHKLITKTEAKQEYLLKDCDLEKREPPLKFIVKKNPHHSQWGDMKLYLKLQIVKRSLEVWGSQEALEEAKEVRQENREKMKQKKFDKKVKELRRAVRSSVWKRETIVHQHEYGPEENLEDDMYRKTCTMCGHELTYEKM
Protocol: Purified XPA (lanes 2-18) was mixed with DMSO (Lane 2, C) control or the indicated compound at a concentration of 50 μM (Lanes 3-18). ^32P labeled ds-platinum damaged DNA was added and incubation continued for 30 minutes on ice. The products were separated on a 6% native gel by electrophoresis at 4° C. Products were detected and quantified by PhosphorImager analysis.
EMSA was carried out using previously described procedure with the following modification. Reactions were performed in volume of 20 μL, containing a ^32P labeled 30 bp duplex DNA containing a single 1,2 dGpG cisplatin adduct. Compounds were pre-incubated on ice with the indicated amount of XPA and products separated by electrophoresis on a non-denaturing 6% polyacrylamide gel. Gels were cooled, loaded and electrophoresis performed at 4° C. Gels were used to expose a Phosphorlmager screen and band intensity determined and % binding and inhibition calculated as we have previously described.
As a reminder, the IC50 is the midpoint of a concentration-inhibition curve. A high value points to lower potency. The molecule `COc1cccc(NC(=O)c2cc(-c3ccc(CC4C(=O)N(c5cccc(C(=O)O)c5)N=C4C(F)(F)F)o3)ccc2Cl)c1` (stereo not drawn) [NG-04-322, 3-(4-((5-(4-chloro-3-((3-methoxyphenyl)carbamoyl)phenyl)furan-2-yl)methyl)-5-oxo-3-(trifluoromethyl)-4,5-dihydro-1H-pyrazol-1-yl)benzoic acid] displayed an IC50 of 30 µM.

The molecule `O=C(O)c1cccc(N2N=C(C(F)(F)F)/C(=C/c3ccc(-c4ccc(Cl)c(C(=O)O)c4)o3)C2=O)c1` [NG-04-314, 5-(5-((1-(3-carboxyphenyl)-5-oxo-3-(trifluoromethyl)-1,5-dihydro-4H-pyrazol-4-ylidene)methyl)furan-2-yl)-2-chlorobenzoic acid] returned an IC50 of 15 µM. Compared with the last molecule, the IC50 is about 2-fold lower.

In turn, `COc1cccc(CNC(=O)c2cc(-c3ccc(/C=C4\C(=O)N(c5ccc(C(=O)O)cc5)N=C4C)o3)ccc2Cl)c1` [NG-03-286, (Z)-4-(4-((5-(4-Chloro-3-((3-methoxybenzyl)carbamoyl)phenyl)furan-2-yl)methylene)-3-methyl-5-oxo-4,5-dihydro-1H-pyrazol-1-yl)benzoic acid] yielded a half-inhibitory concentration (IC50) of 38 µM.

Molecule `CCOC(=O)c1cccc(N2N=C(C(F)(F)F)C(=Cc3ccc(-c4ccc(Cl)c(C(=O)Nc5cccc(OC)c5)c4)o3)C2=O)c1` (mixture of isomers) [NG-04-311, ethyl 3-(4-((5-(4-chloro-3-((3-methoxyphenyl)carbamoyl)phenyl)furan-2-yl)methylene)-5-oxo-3-(trifluoromethyl)-4,5-dihydro-1H-pyrazol-1-yl)benzoate] registered an IC50 above 50 µM.

As for `COc1cccc(NC(=O)c2cc(-c3ccc(/C=C4\C(=O)N(c5cccc(C(=O)O)c5)N=C4C(F)(F)F)o3)ccc2Cl)c1` [NG-04-312, 3-(4-((5-(4-chloro-3-((3-methoxyphenyl)carbamoyl)phenyl)furan-2-yl)methylene)-5-oxo-3-(trifluoromethyl)-4,5-dihydro-1H-pyrazol-1-yl)benzoic acid], the concentration for half-maximal inhibition (IC50) is above 50 µM.

Molecule `CC1=NN(c2cccc(C(=O)O)c2)C(=O)/C1=C\c1ccc(-c2ccc(Cl)c(C(=O)COc3ccccc3Cl)c2)o1` [Compound 2249] showed an IC50 of 2.5 µM. This lies in the single-digit micromolar range.
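Also: XPA expressed in Sf9 cells, preincubated with compound on ice before adding DNA, complex resolved on native polyacrylamide gel at 4 °C, PhosphorImager band intensity, binding inhibition versus DMSO.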
